From ChEMBL document CHEMBL1201862, “PubChem BioAssay data set” (2004)
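96-well plates; 48 h exposure; 5 concentrations. Endpoints by linear interpolation between flanking doses. Not reached: highest tested concentration assigned. GI50: concentration for 50% inhibition of growth.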 Activity calls are given as the source filed them. Rule as the data show it: active = GI50 up to about 1.1 µM and inactive = higher.

Experiments:
Assay in all cases: inhibition of tumour cell growth, NCI panel, 48 h
786-0 = tested on: 786-0
K562 = tested on: K562
COLO 205 = tested on: COLO 205
U-251 = tested on: U-251
HOP-92 = tested on: HOP-92
BT-549 = tested on: BT-549
OVCAR-5 = tested on: OVCAR-5
NCI-H226 = tested on: NCI-H226
SF-295 = tested on: SF-295
OVCAR-8 = tested on: OVCAR-8
NCI-H23 = tested on: NCI-H23
KM12 = tested on: KM12
DU-145 = tested on: DU-145
EKVX = tested on: EKVX
TK-10 = tested on: TK-10
UACC-257 = tested on: UACC-257
LOX IMVI = tested on: LOX IMVI
SK-MEL-2 = tested on: SK-MEL-2
T47D = tested on: T47D

Row | Structure (SMILES) | GI50 (786-0) | GI50 (K562) | GI50 (COLO 205) | GI50 (U-251) | GI50 (HOP-92) | GI50 (BT-549) | GI50 (OVCAR-5) | GI50 (NCI-H226) | GI50 (SF-295) | GI50 (OVCAR-8) | GI50 (NCI-H23) | GI50 (KM12) | GI50 (DU-145) | GI50 (EKVX) | GI50 (TK-10) | GI50 (UACC-257) | GI50 (LOX IMVI) | GI50 (SK-MEL-2) | GI50 (T47D)
1 | COC(=O)c1c(C#N)c(N)nc2c1CCC2 | > 100 µM (inactive) | > 100 µM (inactive) | > 100 µM (inactive) | > 100 µM (inactive) | > 100 µM (inactive) | > 100 µM (inactive) | > 100 µM (inactive) | > 100 µM (inactive) | > 100 µM (inactive) | > 100 µM (inactive) | > 100 µM (inactive) | > 100 µM (inactive) | > 100 µM (inactive) | > 100 µM (inactive) | > 100 µM (inactive) | > 100 µM (inactive) | > 100 µM (inactive) | > 100 µM (inactive) | 75.5 µM (inactive)
2 | Oc1ccccc1-n1nc2ccc3nonc3c2n1 | > 100 µM (inactive) | > 100 µM (inactive) | > 100 µM (inactive) | > 100 µM (inactive) | > 100 µM (inactive) | > 100 µM (inactive) | > 100 µM (inactive) | > 100 µM (inactive) | > 100 µM (inactive) | > 100 µM (inactive) | > 100 µM (inactive) | 30.3 µM (inactive) | > 100 µM (inactive) | 48.1 µM (inactive) | > 100 µM (inactive) | > 100 µM (inactive) | > 100 µM (inactive) | > 100 µM (inactive) | > 100 µM (inactive)
3 | COc1ccccc1OCC(=N/NC(=O)c1ccncc1)/N=C/c1ccncc1 | > 100 µM (inactive) | > 100 µM (inactive) | > 100 µM (inactive) | > 100 µM (inactive) | 44 µM (inactive) | > 100 µM (inactive) | > 100 µM (inactive) | > 100 µM (inactive) | > 100 µM (inactive) | > 100 µM (inactive) | > 100 µM (inactive) | > 100 µM (inactive) | > 100 µM (inactive) | > 100 µM (inactive) | > 100 µM (inactive) | > 100 µM (inactive) | > 100 µM (inactive) | > 100 µM (inactive) | > 100 µM (inactive)
4 | Nc1nc(Cl)c(N)c(NCC2(CO)CC(Cc3ccccc3)C2)n1 (stereo not drawn) | > 91.4 µM (inactive) | 0.218 µM (active) | 34.9 µM (inactive) | 14.6 µM (inactive) | > 77.3 µM (inactive) | 42.5 µM (inactive) | > 100 µM (inactive) | > 31.8 µM (inactive) | > 100 µM (inactive) | 56.9 µM (inactive) | 0.865 µM (active) | 35.7 µM (inactive) | > 100 µM (inactive) | 3.2 µM (inactive) | > 100 µM (inactive) | 0.127 µM (active) | 2.42 µM (inactive) | 52.6 µM (inactive) | 0.923 µM (active)
5 | O[C@@H]1C=C[C@]23CCN(Cc4cc5c(cc42)OCO5)[C@@H]3C1 | 56.8 µM (inactive) | > 100 µM (inactive) | 44.8 µM (inactive) | 41.2 µM (inactive) | 65.6 µM (inactive) | > 100 µM (inactive) | > 100 µM (inactive) | > 100 µM (inactive) | 40 µM (inactive) | 54.1 µM (inactive) | > 100 µM (inactive) | 52.5 µM (inactive) | 24.7 µM (inactive) | 87.1 µM (inactive) | 49.8 µM (inactive) | 92 µM (inactive) | 48.4 µM (inactive) | 31.3 µM (inactive) | 39.1 µM (inactive)
6 | C[N+](C)(C)CC1CCCCCCCCCCC1=O (stereo not drawn) | > 100 µM (inactive) | > 100 µM (inactive) | > 100 µM (inactive) | > 100 µM (inactive) | > 100 µM (inactive) | > 100 µM (inactive) | > 100 µM (inactive) | > 100 µM (inactive) | > 100 µM (inactive) | > 100 µM (inactive) | > 100 µM (inactive) | > 100 µM (inactive) | > 100 µM (inactive) | > 100 µM (inactive) | > 100 µM (inactive) | > 100 µM (inactive) | > 100 µM (inactive) | > 100 µM (inactive) | > 100 µM (inactive)
7 | Cc1cc(C)c(C2=NOC(c3ccccc3)(c3cc(=O)n(-c4ccccc4)s3)O2)c(C)c1 (stereo not drawn) | 19 µM (inactive) | > 100 µM (inactive) | 23.6 µM (inactive) | 24.7 µM (inactive) | 23.2 µM (inactive) | 24.8 µM (inactive) | 18 µM (inactive) | 31.5 µM (inactive) | > 100 µM (inactive) | 18.7 µM (inactive) | 20.6 µM (inactive) | 37 µM (inactive) | 32.1 µM (inactive) | 21.9 µM (inactive) | 25.1 µM (inactive) | 38.9 µM (inactive) | 15.8 µM (inactive) | 28 µM (inactive) | 17.3 µM (inactive)
